US11638424B2, “Mosquito attractant formulations and uses thereof” (priority 2017, dated 2023)

Experiments:
Type in all cases: in vivo
A. gambiae sensu lato [1] = assay: Fosmidomycin assay (feeding on media of FR-900098-treated, IPP-rescued parasite culture); conditions: supplemented with IPP, 90 s feeding, FIG. 1D
Protocol: The fosmidomycin assay was carried out as previously described (12). 48 hours (h) after the initiation of antibiotic treatment (FR-900098, the N-acetyl analogue to fosmidomycin), asexual parasite cultures were rescued by supplementation with 200 μM IPP for 48 h of continued passaging. Media from the rescued culture were collected and offered to mosquitoes, in comparison with media from control parasites (without antibiotic treatment). Fifty mosquitoes, isolated in two separate cages, were offered different treatments. Each group was allowed to feed on its own membrane feeder for 90 s.

A. gambiae s.l. = assay: Olfactometer bioassay (larger Y-tube olfactometer / wind tunnel assay); conditions: RBCs+CO2 vs hRBCs, FIG. 2A
Protocol: Behavioural experiments were performed using different odour sources with and without pulsed CO2 stimuli in a Plexiglas Y shaped olfactometer (9.5 cm i.d.×length of the central cylinder and two arms: 120/120/120 cm respectively), illuminated from above at 280 lx. A charcoal-filtered and humidified air stream (25±2° C., RH 65±2%) passed through stainless steel mesh screens at 30 cm s^−1 to generate a laminar flow in the olfactometer. Odors were introduced into the air stream of each arm at the downwind end. […] Odor sources consisted of either RBC-based treatments or headspace extracts. RBC-based treatments included RBCs alone, hRBCs, giRBCs or ippRBCs (RBCs supplemented with HMBPP, gametocytes or IPP), as well as RBCs with supernatants from gametocyte-infected RBCs, or RBCs supplemented with the synthetic odour blend. Headspace extracts collected from hRBCs and giRBCs were used. Treatments including RBCs were heated to 37° C. prior to being pumped (150 ml min^−1) into the airstream of each arm separately. The blend and headspace extracts were delivered to each arm via a wick dispenser. Carbon dioxide (Strandmöllen) was introduced into a plume generator that was placed behind the metal screens to create a homogenous-pulsed flow, which was regulated by a stimulus controller (SEC-2/b, Syntech, Löptin Germany). […]

A. gambiae sensu lato [2] = assay: Dual choice attraction bioassay (Y-tube olfactometer); conditions: added to RBCs
Protocol: Mosquitoes used in this study were from the laboratory colony of A. gambiae sensu lato (Keele line, University of Glasgow), which was produced by balanced interbreeding of four A. gambiae s.s. strains (H. Hurd, et al. Evolution, 59, 2560-2572 (2005)). Larvae were reared under standard insectary conditions (27±1° C., 70% humidity, 12 h light: 12 h dark cycle) and fed on TetraMin fish flakes (Tetra ltd., Germany). Pupae were transferred into holding cages for emergence. Emerged adults were fed ad libitum on 5% glucose solution, supplemented with 0.05% (w/v) 4-aminobenzoic acid (PABA, Sigma-Aldrich), through soaked filters on top of the 2 ml tubes and with soaked filter pads inside cages. Red blood cells (RBCs) were washed with Roswell Park Memorial Institute (RPMI) medium and stored in RPMI at 50% haematocrit at 4° C. until use. To measure the effect of HMBPP on mosquito fitness, RBCs stored in RPMI were centrifuged at 2500×g for 5 min followed by replacement of the medium with AB serum for a final haematocrit of 40%. HMBPP (stock concentration at 4 mM in Nanopure water, stored at −80° C.) was diluted to 10 μM in 1 ml RBC suspension, and the corresponding volume of Nanopure water was added to the control RBCs. All experiments were, unless otherwise stated, conducted on 5-7 days post-emergence female mosquitoes maintained in separated cages (approximately 210 individuals per cohort) and fed RBCs either with or without HMBPP for 30 min. All experiments were performed in triplicates.
Initial experiments were performed using a Y-tube olfactometer (length of the central cylinder and two arms: 25/15/15 cm respectively, inner diameter: 5 cm; see FIG. 1a). For each experiment, 180 female mosquitoes were individually placed in a release chamber and flown one by one. Females flew towards the upwind end (airflow 3 L min^−1) and entered one of two trapping chambers through which odour released from nearby membrane feeders passed (5 cm distance to each trapping chamber). Three experiments were conducted. In the first experiment, the membrane feeders were loaded with RBCs with or without HMBPP, while in the second they were loaded with serum with or without HMBPP. The third experiment was performed with a 5% glucose with 0.05% PABA solution with or without HMBPP. To control for possible spatial effects, the location of treatment at each olfactometer arm was switched every 30 minutes (˜15 mosquitoes flied one by one in each 30 minutes). Each replacement (feeder rotation with fresh RBCs) was counted as an experimental replicate (experimental block). Mosquitoes reaching any of the trapping chambers were considered to have made a choice. Each experiment was repeated six times with in total 180 mosquitoes per treatment.

## CC(=O)N(O)CCCP(=O)(O)O [fosmidomycin derivative]
A. gambiae sensu lato [1]
  mosquito feeding after block of HMBPP synthesis in tiRBCs: reduction of feeding to control levels

## O=C=O [carbon dioxide, reference compound]
A. gambiae s.l.
  attraction to RBCs supplemented with carbon dioxide versus hRBCs: not sufficient to reproduce the full mosquito attraction to hRBCs

## C/C(=C\CO)CO [(2E)-2-methylbut-2-ene-1,4-diol, reference compound]
A. gambiae sensu lato [2]
  effect on the attraction of mosquitoes to RBCs: had no effect
